Data taken from patent US20220218852A1, “NOVEL RADIOLABELLED CXCR4-TARGETING COMPOUNDS FOR DIAGNOSIS AND THERAPY” (PROVINCIAL HEALTH SERVICES AUTHORITY, priority 2019, published 2022).
Read-outs that look alike come from different tables or passages of the source. Positions of bridges follow the written chain, without caps; N, C: chain ends. Non-standard residues stand in square brackets, D forms with d. Residues, ends and D or L forms follow the SMILES beside them. Groups on a side chain read outwards from the residue. *: point of attachment. X1 = O=C(O)CC[C@H](NC(=O)CN1CCN(CC(=O)O)CCN(CC(=O)O)CCN(CC(=O)O)CC1)C(=O)N[C@@H](CCCCNC(=O)CNC(=O)CCCc1ccc(F)cc1)C(=O)*; X2 = Cc1ccc(CCCC(=O)NCC(=O)NCCCC[C@H](NC(=O)[C@H](CCC(=O)O)NC(=O)CN2CCN(CC(=O)O)CCN(CC(=O)O)CCN(CC(=O)O)CC2)C(=O)*)cc1; 2Nal = N[C@@H](Cc1ccc2ccccc2c1)C(=O)O; Lys(iPr) = CC(C)NCCCC[C@H](N)C(=O)O

What was measured:
[1] = Biodistribution in Daudi tumor-bearing mice; format: in vivo; conditions: male, NOD.Cg-Rag1^tm1MomII2rg^tm1Wjl/SzJ (NRG), mouse, iv, total radioactivity; for tissue uptake at 3 h: Daudi tumor-bearing mice; for tissue uptake at 1 h: Daudi xenograft bearing mice
Procedure: (§1) For Daudi, Z138, GRANTA519 and Jeko1 xenografts, male NOD.Cg-Rag1^tm1MomII2rg^tm1Wjl/SzJ (NRG) mice were subcutaneously inoculated on the left flank with 5×10^6 cells (100 μL; 1:1 ratio of PBS/Matrigel) and tumors were grown to a size of 200-500 mm^3. For PC-3 xenografts, male NOD.Cg-Rag1^tm1MomII2rg^tm1Wjl/SzJ (NRG) mice were subcutaneously inoculated on the left flank with 5×10^6 PC-3 cells (100 μL; 1:1 ratio of PBS/Matrigel) and tumors were grown to a size of 200-400 mm^3.
(§2) The mice were euthanized via CO2 inhalation while anesthetized with isoflurane. Tissues were harvested, washed in PBS, blotted dry, weighed, and measured on a Hidex AMG Automatic Gamma Counter.

[2] = system: Daudi Burkitt's lymphoma xenografts; test: Biodistribution in Daudi tumor-bearing mice; format: in vivo; conditions: for Ratio Tumor: Blood / Ratio Tumor: Bone / Ratio Tumor: Liver / Ratio Tumor: Lung / Ratio Tumor: Muscle / Ratio Tumor: Spleen: Daudi tumor-bearing mice, 3 h; for Ratio Tumour:Blood / Ratio Tumour:Bone / Ratio Tumour:Liver / Ratio Tumour:Lung / Ratio Tumour:Muscle / Ratio Tumour:Spleen: Daudi xenograft bearing mice, 1 h
Procedure: as §1, §2

[3] = Daudi tumor, read-out: Biodistribution Daudi (tumor)
[4] = Daudi tumour, read-out: Biodistribution Daudi (tumour)
[5] = adrenals, read-out: Biodistribution Adrenals
[6] = blood, read-out: Biodistribution Blood
[7] = bone, read-out: Biodistribution Bone
[8] = brain, read-out: Biodistribution Brain
[9] = fat, read-out: Biodistribution Fat
[10] = heart, read-out: Biodistribution Heart
[11] = intestine, read-out: Biodistribution Intestine
[12] = kidney, read-out: Biodistribution Kidney
[13] = liver, read-out: Biodistribution Liver
[14] = lung, read-out: Biodistribution Lung
[15] = muscle, read-out: Biodistribution Muscle
[16] = pancreas, read-out: Biodistribution Pancreas
[17] = spleen, read-out: Biodistribution Spleen
[18] = stomach, read-out: Biodistribution Stomach
[19] = testes, read-out: Biodistribution Testes

## CC(C)NCCCC[C@@H]1NC(=O)[C@H](Cc2ccc(O)cc2)NC(=O)[C@H](Cc2ccccc2)NC(=O)CC[C@H](C(=O)N[C@@H](CCCCNC(C)C)C(=O)N[C@@H](CCCCNC(=O)[C@H](CCC(=O)O)NC(=O)[C@H](CCCCNC(=O)CNC(=O)CCCc2ccc(F)cc2)NC(=O)[C@H](CCC(=O)O)NC(=O)CN2CCN(CC(=O)O)CCN(CC(=O)O)CCN(CC(=O)O)CC2)C(N)=O)NC(=O)CNC(=O)[C@H](Cc2ccc3ccccc3c2)NC(=O)[C@@H](CCCNC(=N)N)NC1=O [[^68Ga]Ga-BL27, metal not drawn] (FY[Lys(iPr)][dR][2Nal]G[dE][Lys(iPr)]K([Glu-X1])-NH2; lactam N-7)
[1]; [3]
  tissue uptake at 3 h: 10.4 %ID/g
[1]; [4]
  tissue uptake at 1 h: 8.78 %ID/g
[1]; [5]
  tissue uptake at 3 h: 0.58 %ID/g
  tissue uptake at 1 h: 1.66 %ID/g
[1]; [6]
  tissue uptake at 3 h: 0.95 %ID/g
  tissue uptake at 1 h: 4.6 %ID/g
[1]; [7]
  tissue uptake at 3 h: 0.27 %ID/g
  tissue uptake at 1 h: 0.66 %ID/g
[1]; [8]
  tissue uptake at 3 h: 0.03 %ID/g
  tissue uptake at 1 h: 0.07 %ID/g
[1]; [9]
  tissue uptake at 3 h: 0.09 %ID/g
  tissue uptake at 1 h: 0.35 %ID/g
[1]; [10]
  tissue uptake at 3 h: 0.32 %ID/g
  tissue uptake at 1 h: 1.27 %ID/g
[1]; [11]
  tissue uptake at 3 h: 0.36 %ID/g
  tissue uptake at 1 h: 0.85 %ID/g
[1]; [12]
  tissue uptake at 3 h: 4.77 %ID/g
  tissue uptake at 1 h: 6.21 %ID/g
[1]; [13]
  tissue uptake at 3 h: 2.64 %ID/g
  tissue uptake at 1 h: 2.61 %ID/g
[1]; [14]
  tissue uptake at 3 h: 2.1 %ID/g
  tissue uptake at 1 h: 7.23 %ID/g
[1]; [15]
  tissue uptake at 3 h: 0.13 %ID/g
  tissue uptake at 1 h: 0.43 %ID/g
[1]; [16]
  tissue uptake at 3 h: 0.26 %ID/g
  tissue uptake at 1 h: 0.62 %ID/g
[1]; [17]
  tissue uptake at 3 h: 1.06 %ID/g
  tissue uptake at 1 h: 2.82 %ID/g
[1]; [18]
  tissue uptake at 3 h: 0.12 %ID/g
  tissue uptake at 1 h: 0.19 %ID/g
[1]; [19]
  tissue uptake at 3 h: 0.31 %ID/g
  tissue uptake at 1 h: 0.8 %ID/g
[2]
  Ratio Tumor: Blood: 10.85
  Ratio Tumor: Bone: 38.31
  Ratio Tumor: Liver: 3.91
  Ratio Tumor: Lung: 5.59
  Ratio Tumor: Muscle: 83.68
  Ratio Tumor: Spleen: 10.08
  Ratio Tumour:Blood: 1.99
  Ratio Tumour:Bone: 13.68
  Ratio Tumour:Liver: 3.46
  Ratio Tumour:Lung: 1.27
  Ratio Tumour:Muscle: 21.47
  Ratio Tumour:Spleen: 3.37

## Cc1ccc(CCCC(=O)NCC(=O)NCCCC[C@H](NC(=O)[C@H](CCC(=O)O)NC(=O)CN2CCN(CC(=O)O)CCN(CC(=O)O)CCN(CC(=O)O)CC2)C(=O)N[C@@H](CCC(=O)O)C(=O)NCCCC[C@H](NC(=O)[C@H](CCCCNC(C)C)NC(=O)[C@H]2CCC(=O)N[C@@H](Cc3ccccc3)C(=O)N[C@@H](Cc3ccc(O)cc3)C(=O)N[C@@H](CCCCNC(C)C)C(=O)N[C@H](CCCNC(=N)N)C(=O)N[C@@H](Cc3ccc4ccccc4c3)C(=O)NCC(=O)N2)C(N)=O)cc1 [[^68Ga]Ga-BL28, metal not drawn] (FY[Lys(iPr)][dR][2Nal]G[dE][Lys(iPr)]K([Glu-X2])-NH2; lactam N-7)
[1]; [3]
  tissue uptake at 3 h: 7.82 %ID/g
[1]; [4]
  tissue uptake at 1 h: 4.59 %ID/g
[1]; [5]
  tissue uptake at 3 h: 2.46 %ID/g
  tissue uptake at 1 h: 2.53 %ID/g
[1]; [6]
  tissue uptake at 3 h: 11.6 %ID/g
  tissue uptake at 1 h: 14.7 %ID/g
[1]; [7]
  tissue uptake at 3 h: 0.94 %ID/g
  tissue uptake at 1 h: 1.14 %ID/g
[1]; [8]
  tissue uptake at 3 h: 0.17 %ID/g
  tissue uptake at 1 h: 0.19 %ID/g
[1]; [9]
  tissue uptake at 3 h: 0.56 %ID/g
  tissue uptake at 1 h: 0.64 %ID/g
[1]; [10]
  tissue uptake at 3 h: 2.29 %ID/g
  tissue uptake at 1 h: 3.21 %ID/g
[1]; [11]
  tissue uptake at 3 h: 1 %ID/g
  tissue uptake at 1 h: 1.21 %ID/g
[1]; [12]
  tissue uptake at 3 h: 4.76 %ID/g
  tissue uptake at 1 h: 5.41 %ID/g
[1]; [13]
  tissue uptake at 3 h: 2.92 %ID/g
  tissue uptake at 1 h: 2.92 %ID/g
[1]; [14]
  tissue uptake at 3 h: 5.35 %ID/g
  tissue uptake at 1 h: 7.11 %ID/g
[1]; [15]
  tissue uptake at 3 h: 0.76 %ID/g
  tissue uptake at 1 h: 0.96 %ID/g
[1]; [16]
  tissue uptake at 3 h: 1.21 %ID/g
  tissue uptake at 1 h: 1.49 %ID/g
[1]; [17]
  tissue uptake at 3 h: 2.34 %ID/g
  tissue uptake at 1 h: 2.21 %ID/g
[1]; [18]
  tissue uptake at 3 h: 0.38 %ID/g
  tissue uptake at 1 h: 0.47 %ID/g
[1]; [19]
  tissue uptake at 3 h: 2.05 %ID/g
  tissue uptake at 1 h: 1.73 %ID/g
[2]
  Ratio Tumor: Blood: 0.68
  Ratio Tumor: Bone: 8.55
  Ratio Tumor: Liver: 2.71
  Ratio Tumor: Lung: 1.46
  Ratio Tumor: Muscle: 10.49
  Ratio Tumor: Spleen: 3.38
  Ratio Tumour:Blood: 0.31
  Ratio Tumour:Bone: 4.12
  Ratio Tumour:Liver: 1.59
  Ratio Tumour:Lung: 0.65
  Ratio Tumour:Muscle: 4.82
  Ratio Tumour:Spleen: 2.08
